According to PMC5762315, “Inhibition of polo-like kinase 4 (PLK4): a new therapeutic option for rhabdoid tumors and pediatric medulloblastoma” (Oncotarget, 2017):
Values joined by “and” are separate entries in the source; they are usually repeats but may differ in a detail not shown here. Equal entries are not always repeated.

What was measured:
Experiment in all cases: LanthaScreen Eu Kinase Binding Assay, panel of 486 biochemical kinase assays
various kinases [1] = target: various kinases (Homo sapiens, UniProt O43353); conditions: kinase RIPK2; LanthaScreen Binding
Chain of various kinases (Homo sapiens, UniProt O43353) (O43353 whole entry): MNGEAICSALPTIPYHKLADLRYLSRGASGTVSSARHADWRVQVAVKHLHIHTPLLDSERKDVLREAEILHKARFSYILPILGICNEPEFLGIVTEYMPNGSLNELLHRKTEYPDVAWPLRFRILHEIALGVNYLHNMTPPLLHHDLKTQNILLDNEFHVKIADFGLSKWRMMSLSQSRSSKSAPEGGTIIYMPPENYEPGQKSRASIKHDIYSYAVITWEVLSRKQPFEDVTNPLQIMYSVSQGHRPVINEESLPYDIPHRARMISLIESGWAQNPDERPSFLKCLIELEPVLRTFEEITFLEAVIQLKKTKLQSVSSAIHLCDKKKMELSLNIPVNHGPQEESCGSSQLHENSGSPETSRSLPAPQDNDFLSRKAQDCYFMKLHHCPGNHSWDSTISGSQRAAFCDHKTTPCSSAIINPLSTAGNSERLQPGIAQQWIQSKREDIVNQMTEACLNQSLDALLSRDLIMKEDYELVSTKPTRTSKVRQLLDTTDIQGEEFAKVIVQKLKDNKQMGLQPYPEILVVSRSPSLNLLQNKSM

various kinases [2] = target: various kinases (Homo sapiens, UniProt O75460); conditions: ERN1
various kinases [3] = target: various kinases (Homo sapiens, UniProt P00519, H396P); conditions: ABL1 H396P
various kinases [4] = target: various kinases (Homo sapiens, UniProt P27037); conditions: ACVR2A
Chain of various kinases (Homo sapiens, UniProt P27037) (P27037 20-513): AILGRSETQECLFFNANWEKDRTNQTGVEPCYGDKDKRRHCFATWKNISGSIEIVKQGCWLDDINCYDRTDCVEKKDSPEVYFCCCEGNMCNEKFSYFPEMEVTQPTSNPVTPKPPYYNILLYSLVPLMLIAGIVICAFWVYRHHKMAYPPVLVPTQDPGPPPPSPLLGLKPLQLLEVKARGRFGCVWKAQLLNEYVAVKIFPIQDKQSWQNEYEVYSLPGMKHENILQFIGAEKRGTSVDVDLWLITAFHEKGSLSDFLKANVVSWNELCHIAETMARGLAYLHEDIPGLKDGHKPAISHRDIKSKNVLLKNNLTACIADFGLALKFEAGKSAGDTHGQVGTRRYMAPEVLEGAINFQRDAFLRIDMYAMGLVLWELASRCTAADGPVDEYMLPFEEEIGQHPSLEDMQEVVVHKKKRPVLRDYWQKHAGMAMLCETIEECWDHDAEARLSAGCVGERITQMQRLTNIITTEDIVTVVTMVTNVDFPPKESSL

various kinases [5] = target: various kinases (Homo sapiens, UniProt P30530, R499C); conditions: AXL R499C
various kinases [6] = target: various kinases (Homo sapiens, UniProt P52564, S207E/T211E); conditions: MAP2K6 (MKK6) S207E T211E
various kinases [7] = target: various kinases (Homo sapiens, UniProt P54646)
Chain of various kinases (Homo sapiens, UniProt P54646) (P54646 whole entry): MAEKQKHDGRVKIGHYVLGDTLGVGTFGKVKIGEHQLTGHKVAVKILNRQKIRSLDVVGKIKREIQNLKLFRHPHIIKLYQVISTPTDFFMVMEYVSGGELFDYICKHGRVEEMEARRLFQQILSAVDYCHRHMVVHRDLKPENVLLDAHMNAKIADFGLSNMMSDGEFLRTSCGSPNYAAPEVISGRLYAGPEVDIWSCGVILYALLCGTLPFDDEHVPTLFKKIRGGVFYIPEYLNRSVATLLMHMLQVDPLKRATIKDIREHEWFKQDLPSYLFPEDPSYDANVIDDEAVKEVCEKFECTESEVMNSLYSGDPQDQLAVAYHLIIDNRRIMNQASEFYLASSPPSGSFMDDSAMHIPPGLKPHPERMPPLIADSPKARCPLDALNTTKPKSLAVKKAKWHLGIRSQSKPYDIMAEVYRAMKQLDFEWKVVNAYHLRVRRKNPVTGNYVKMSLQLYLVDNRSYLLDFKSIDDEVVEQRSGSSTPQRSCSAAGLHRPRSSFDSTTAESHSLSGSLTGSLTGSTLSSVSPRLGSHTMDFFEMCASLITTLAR

various kinases [8] = target: various kinases (Homo sapiens, UniProt Q00536); conditions: CDK16 (PCTK1)/cyclin Y
Chain of various kinases (Homo sapiens, UniProt Q00536) (Q00536 whole entry): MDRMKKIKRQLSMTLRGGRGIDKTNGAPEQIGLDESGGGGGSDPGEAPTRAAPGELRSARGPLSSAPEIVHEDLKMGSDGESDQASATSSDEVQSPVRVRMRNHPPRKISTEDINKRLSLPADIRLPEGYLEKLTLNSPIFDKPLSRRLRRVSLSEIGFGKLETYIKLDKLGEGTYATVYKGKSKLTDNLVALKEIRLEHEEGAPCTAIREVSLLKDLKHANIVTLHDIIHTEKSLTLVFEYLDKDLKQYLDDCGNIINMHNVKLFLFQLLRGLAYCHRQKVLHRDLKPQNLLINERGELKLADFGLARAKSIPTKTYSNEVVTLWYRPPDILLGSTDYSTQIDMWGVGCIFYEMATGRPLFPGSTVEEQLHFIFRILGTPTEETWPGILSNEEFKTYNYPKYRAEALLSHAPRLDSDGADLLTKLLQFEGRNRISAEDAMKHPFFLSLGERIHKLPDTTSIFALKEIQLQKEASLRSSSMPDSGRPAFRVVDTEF

various kinases [9] = target: various kinases (Homo sapiens, UniProt Q02750, S218D/S222D); conditions: MAP2K1 (MEK1) S218D S222D
Chain of various kinases (Homo sapiens, UniProt Q02750, S218D/S222D) (Q02750 whole entry S218D/S222D): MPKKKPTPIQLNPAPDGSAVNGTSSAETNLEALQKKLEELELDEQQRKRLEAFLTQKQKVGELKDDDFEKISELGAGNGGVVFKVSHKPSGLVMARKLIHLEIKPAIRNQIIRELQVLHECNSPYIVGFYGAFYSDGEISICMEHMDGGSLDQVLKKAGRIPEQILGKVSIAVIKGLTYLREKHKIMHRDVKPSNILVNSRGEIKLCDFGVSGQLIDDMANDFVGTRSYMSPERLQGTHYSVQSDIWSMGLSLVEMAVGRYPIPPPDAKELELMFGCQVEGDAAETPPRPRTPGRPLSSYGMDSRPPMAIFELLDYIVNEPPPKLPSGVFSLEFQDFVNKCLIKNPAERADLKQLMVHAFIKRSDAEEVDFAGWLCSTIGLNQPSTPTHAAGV

various kinases [10] = target: various kinases (Homo sapiens, UniProt Q13555); conditions: CAMK2G (CaMKII gamma)
Chain of various kinases (Homo sapiens, UniProt Q13555) (Q13555 whole entry): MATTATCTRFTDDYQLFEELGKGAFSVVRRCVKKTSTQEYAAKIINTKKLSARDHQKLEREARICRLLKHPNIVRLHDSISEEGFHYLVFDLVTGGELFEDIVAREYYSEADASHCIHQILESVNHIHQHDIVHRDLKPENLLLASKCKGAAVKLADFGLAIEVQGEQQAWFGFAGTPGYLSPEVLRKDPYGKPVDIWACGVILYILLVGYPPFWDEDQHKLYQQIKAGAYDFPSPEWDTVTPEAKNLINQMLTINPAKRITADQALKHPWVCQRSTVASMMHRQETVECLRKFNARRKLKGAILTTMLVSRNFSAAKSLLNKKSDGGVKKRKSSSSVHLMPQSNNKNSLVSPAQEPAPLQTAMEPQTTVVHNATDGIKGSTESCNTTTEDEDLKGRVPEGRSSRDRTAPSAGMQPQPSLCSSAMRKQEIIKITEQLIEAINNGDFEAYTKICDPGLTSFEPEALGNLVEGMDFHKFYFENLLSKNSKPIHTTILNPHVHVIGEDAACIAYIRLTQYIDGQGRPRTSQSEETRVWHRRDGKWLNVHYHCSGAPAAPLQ

various kinases [11] = target: various kinases (Homo sapiens, UniProt Q13873); conditions: BMPR2
Chain of various kinases (Homo sapiens, UniProt Q13873) (Q13873 27-1038): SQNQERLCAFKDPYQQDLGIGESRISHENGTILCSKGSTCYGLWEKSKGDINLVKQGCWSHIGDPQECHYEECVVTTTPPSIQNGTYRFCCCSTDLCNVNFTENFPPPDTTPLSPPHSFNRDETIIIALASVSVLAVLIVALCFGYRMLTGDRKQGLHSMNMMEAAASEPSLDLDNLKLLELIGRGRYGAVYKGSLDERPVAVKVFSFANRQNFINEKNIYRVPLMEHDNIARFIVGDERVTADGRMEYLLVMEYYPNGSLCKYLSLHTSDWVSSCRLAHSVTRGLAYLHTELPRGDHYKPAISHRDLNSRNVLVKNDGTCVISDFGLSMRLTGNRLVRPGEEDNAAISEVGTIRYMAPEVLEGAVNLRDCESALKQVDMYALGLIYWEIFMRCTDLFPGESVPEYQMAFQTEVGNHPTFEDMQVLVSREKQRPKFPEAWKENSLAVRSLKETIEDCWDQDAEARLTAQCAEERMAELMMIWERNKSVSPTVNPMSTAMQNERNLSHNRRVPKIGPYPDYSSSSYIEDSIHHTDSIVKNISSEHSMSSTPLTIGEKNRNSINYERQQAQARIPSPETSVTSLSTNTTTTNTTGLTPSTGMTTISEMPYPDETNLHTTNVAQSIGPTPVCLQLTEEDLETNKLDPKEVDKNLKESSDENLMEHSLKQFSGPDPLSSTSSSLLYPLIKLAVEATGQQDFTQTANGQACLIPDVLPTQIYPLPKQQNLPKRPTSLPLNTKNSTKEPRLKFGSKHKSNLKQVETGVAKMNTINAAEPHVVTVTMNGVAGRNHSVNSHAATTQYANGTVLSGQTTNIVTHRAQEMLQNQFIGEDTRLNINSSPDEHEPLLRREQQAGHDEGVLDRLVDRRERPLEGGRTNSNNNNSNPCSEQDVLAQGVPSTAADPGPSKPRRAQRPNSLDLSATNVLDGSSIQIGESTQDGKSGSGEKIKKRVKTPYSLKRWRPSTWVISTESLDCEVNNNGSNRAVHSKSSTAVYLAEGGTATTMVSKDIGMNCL

various kinases [12] = target: various kinases (Homo sapiens, UniProt Q16584); conditions: MAP3K11 (MLK3)
various kinases [13] = target: T1, various kinases (Homo sapiens, UniProt Q7L7X3); conditions: kinase TAOK1; LanthaScreen Binding
T1 sequence (Q7L7X3 1-1001): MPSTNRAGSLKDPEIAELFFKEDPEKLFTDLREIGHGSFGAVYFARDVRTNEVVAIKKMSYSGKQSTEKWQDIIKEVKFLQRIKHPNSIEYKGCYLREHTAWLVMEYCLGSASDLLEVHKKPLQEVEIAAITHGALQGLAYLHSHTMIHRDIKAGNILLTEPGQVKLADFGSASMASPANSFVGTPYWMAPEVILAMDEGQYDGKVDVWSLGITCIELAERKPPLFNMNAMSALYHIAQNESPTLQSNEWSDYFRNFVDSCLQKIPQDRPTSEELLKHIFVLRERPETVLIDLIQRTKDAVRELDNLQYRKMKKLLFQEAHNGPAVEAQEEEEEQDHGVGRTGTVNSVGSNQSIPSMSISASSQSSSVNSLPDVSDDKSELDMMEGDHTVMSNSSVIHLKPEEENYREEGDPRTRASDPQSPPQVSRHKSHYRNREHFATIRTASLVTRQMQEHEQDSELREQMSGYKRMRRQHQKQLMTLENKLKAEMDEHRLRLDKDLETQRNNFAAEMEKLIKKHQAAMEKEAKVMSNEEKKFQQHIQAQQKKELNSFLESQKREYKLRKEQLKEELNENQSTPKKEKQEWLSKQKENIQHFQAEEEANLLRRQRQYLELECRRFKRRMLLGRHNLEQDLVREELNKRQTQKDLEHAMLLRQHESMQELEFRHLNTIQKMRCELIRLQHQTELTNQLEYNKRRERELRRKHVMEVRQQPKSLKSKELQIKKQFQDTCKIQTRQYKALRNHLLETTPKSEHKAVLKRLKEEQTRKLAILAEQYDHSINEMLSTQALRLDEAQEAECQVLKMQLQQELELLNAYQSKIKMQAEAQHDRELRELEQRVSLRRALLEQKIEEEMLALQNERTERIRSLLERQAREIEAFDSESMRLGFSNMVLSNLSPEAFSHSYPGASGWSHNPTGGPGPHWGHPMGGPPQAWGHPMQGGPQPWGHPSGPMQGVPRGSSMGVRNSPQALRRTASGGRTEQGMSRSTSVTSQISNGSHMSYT

various kinases [14] = target: various kinases (Homo sapiens, UniProt Q8NEV4); conditions: MYO3A (MYO3 alpha)
various kinases [15] = target: various kinases (Homo sapiens, UniProt Q92630); conditions: DYRK2
various kinases [16] = target: T2, various kinases (Homo sapiens, UniProt Q99640); conditions: kinase PKMYT1; LanthaScreen Binding
T2 sequence (Q99640 1-499): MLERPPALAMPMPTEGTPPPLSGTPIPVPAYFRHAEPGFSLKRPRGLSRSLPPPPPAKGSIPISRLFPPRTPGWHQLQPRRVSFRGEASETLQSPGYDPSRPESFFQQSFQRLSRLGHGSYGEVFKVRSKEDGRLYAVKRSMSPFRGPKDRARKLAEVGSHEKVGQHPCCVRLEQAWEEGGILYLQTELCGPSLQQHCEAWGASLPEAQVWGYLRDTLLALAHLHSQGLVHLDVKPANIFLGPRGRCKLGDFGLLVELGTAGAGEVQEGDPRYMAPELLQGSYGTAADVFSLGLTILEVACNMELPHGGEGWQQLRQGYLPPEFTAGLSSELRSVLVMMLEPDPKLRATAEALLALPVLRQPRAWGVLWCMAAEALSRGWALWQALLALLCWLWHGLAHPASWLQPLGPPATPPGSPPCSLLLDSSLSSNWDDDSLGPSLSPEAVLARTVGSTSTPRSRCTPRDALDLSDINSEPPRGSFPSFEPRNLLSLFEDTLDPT

various kinases [17] = target: various kinases (Homo sapiens, UniProt Q9NY57); conditions: kinase STK32B (YANK2); LanthaScreen Binding
Chain of various kinases (Homo sapiens, UniProt Q9NY57) (Q9NY57 whole entry): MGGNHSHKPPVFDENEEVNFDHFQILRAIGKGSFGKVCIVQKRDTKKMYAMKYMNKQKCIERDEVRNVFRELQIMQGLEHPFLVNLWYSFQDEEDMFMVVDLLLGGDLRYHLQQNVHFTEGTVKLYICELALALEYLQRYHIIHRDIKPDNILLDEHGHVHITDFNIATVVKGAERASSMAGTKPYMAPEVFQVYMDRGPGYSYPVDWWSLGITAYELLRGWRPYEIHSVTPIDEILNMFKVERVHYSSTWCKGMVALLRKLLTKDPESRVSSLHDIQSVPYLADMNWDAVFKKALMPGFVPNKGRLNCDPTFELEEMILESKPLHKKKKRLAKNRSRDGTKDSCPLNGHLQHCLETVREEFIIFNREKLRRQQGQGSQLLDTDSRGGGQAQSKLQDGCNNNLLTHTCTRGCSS

various kinases [18] = target: various kinases (Homo sapiens, UniProt Q9Y2U5); conditions: MAP3K2 (MEKK2)
various kinases [19] = target: various kinases (Homo sapiens, UniProt Q9Y572); conditions: kinase RIPK3; LanthaScreen Binding
Chain of various kinases (Homo sapiens, UniProt Q9Y572) (Q9Y572 whole entry): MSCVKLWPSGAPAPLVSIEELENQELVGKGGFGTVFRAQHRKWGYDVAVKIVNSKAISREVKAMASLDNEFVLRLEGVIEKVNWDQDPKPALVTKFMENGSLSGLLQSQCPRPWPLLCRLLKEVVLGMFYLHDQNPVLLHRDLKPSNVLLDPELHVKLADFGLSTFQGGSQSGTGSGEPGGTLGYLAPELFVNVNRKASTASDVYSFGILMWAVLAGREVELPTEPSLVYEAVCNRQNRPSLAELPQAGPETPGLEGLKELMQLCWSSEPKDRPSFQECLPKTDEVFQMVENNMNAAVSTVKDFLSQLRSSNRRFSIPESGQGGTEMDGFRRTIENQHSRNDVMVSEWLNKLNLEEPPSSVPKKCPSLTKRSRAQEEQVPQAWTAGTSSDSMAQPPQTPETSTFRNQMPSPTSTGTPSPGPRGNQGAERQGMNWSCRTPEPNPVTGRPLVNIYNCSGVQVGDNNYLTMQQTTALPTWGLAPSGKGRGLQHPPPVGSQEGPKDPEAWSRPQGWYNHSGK

COc1ccc2c(c1)[C@]1(C[C@H]1c1ccc3c(/C=C/c4ccc(CN5C[C@@H](C)O[C@@H](C)C5)cc4)n[nH]c3c1)C(=O)N2 [CFI-400945]
% Inhibition Average (various kinases [1]): 3% | % Inhibition Duplicate #1 (various kinases [1]): 3% | % Inhibition Duplicate #2 (various kinases [1]): 3% | % Inhibition (various kinases [2]): 3% and 7% | % Inhibition (various kinases [3]): 72% and 73% | % Inhibition (various kinases [4]): 18% and 15% | % Inhibition (various kinases [5]): 11% and 12% | % Inhibition (various kinases [6]): 9% and 8% | % Inhibition (various kinases [7]; AMPK (A2/B2/G1)): 14% and 19% | % Inhibition (various kinases [7]; AMPK (A2/B2/G2)): 14% and 12% | % Inhibition (various kinases [8]): 10% and 9% | % Inhibition (various kinases [9]): 4% and 10% | % Inhibition (various kinases [10]): 50% and 36% | % Inhibition (various kinases [11]): 0% and 2% | % Inhibition (various kinases [12]): 7% and -2% | % Inhibition Average (various kinases [13]): 14% | % Inhibition Duplicate #1 (various kinases [13]): 15% | % Inhibition Duplicate #2 (various kinases [13]): 13% | % Inhibition (various kinases [14]): 8% | % Inhibition (various kinases [15]): 1% and 10% | % Inhibition Average (various kinases [16]): 31% | % Inhibition Duplicate #1 (various kinases [16]): 31% | % Inhibition Duplicate #2 (various kinases [16]): 30% | % Inhibition Average (various kinases [17]): 4% | % Inhibition Duplicate #1 (various kinases [17]): -1% | % Inhibition Duplicate #2 (various kinases [17]): 9% | % Inhibition (various kinases [18]): -1% and 4% | % Inhibition Average (various kinases [19]): 11% | % Inhibition Duplicate #1 (various kinases [19]): 11% | % Inhibition Duplicate #2 (various kinases [19]): 11%
